Measurements published in patent US11752169B2, “Treatment of pain with polysulfated polysaccharides” (PARADIGM BIOPHARMACEUTICALS LTD., priority 2018, dated 2023).

Assays:
NGF = test: human NGF ELISA of culture supernatants of osteocyte-like cultures; format: cell-based; conditions: KOA or NOF osteocyte-like cultures, PPS 1, 5 or 50 μg/mL for 72 h vs untreated
Excerpt: (§1) In order to maximise the clinical relevance of the findings from this study, the effects of PPS were to be tested on osteocyte-like cultures derived by differentiation in vitro for a period of 28 days from cells isolated from the subchondral bone of the proximal tibia of three patients with advanced knee OA who underwent total knee arthroplasty (TKA) surgery (KOA: Group 1). As a comparator group, cells isolated from the proximal femur of three patients who underwent total hip arthroplasty (THA) for neck of femur fracture (NOF: Group 2), were similarly differentiated and tested. The gender of all donors was female, and group were age matched, with the mean age of KOA being 77.0±8.5 years and that of the NOF group being 77.7±5.5 years (p=0.91).
Cryopreserved cells from each donor (all at passage 0 or 1) were thawed and cultured for 10d in T75 cm^2 tissue culture flasks. Once confluent, cells were removed by collagenase/dispase digestion, washed by centrifugation, counted and adjusted to 5×10^5 cells/mL. Cells were then seeded into either 12-well tissue culture trays or into 8-well chamber slides, at 1×10^5 and 2×10^4 cells/well, respectively. […]

proNGF = proNGF ELISA of culture supernatants of osteocyte-like cultures treated with rhTNF and PPS; format: cell-based, human
Excerpt: as §1, with “The gender of all donors was female, and group were age matched, with the mean age of KOA being 77.0±8.5 years and that of the NOF group being 77.7±5.5 years (p=0.91).” left out
Cryopreserved cells from each donor (all at passage 0 or 1) were thawed and cultured for 10d in T75 cm^2 tissue culture flasks. Once confluent, cells were removed by collagenase/dispase digestion, washed by centrifugation, counted and adjusted to 5×10^5 cells/mL. […]
To examine further the effects of PPS on NGF expression, osteocyte-like cultures derived from three KOA and three NOF donor osteoblasts were treated after 3 days pre-treatment with differing concentrations of PPS, with rhTNFα in the absence or presence of the pre-treatment concentration of PPS. […] Therefore, in this study proNGF levels were also measured in the treated supernatants, as described in Materials and Methods.

COX2 mRNA = test: real-time RT-PCR for COX2 mRNA in KOA osteocyte-like cultures; format: cell-based, human
Method: (§2) Cryopreserved cells from each donor (all at passage 0 or 1) were thawed and cultured for 10d in T75 cm^2 tissue culture flasks. Once confluent, cells were removed by collagenase/dispase digestion, washed by centrifugation, counted and adjusted to 5×10^5 cells/mL. Cells were then seeded into either 12-well tissue culture trays or into 8-well chamber slides, at 1×10^5 and 2×10^4 cells/well, respectively. After 24 h, media were replaced with osteogenic differentiation medium, consisting of αMEM, 5% v/v foetal calf serum (FCS), 1.8 mM potassium dihydrogen phosphate (KH2PO4), 100 μM Ascorbate-2-phosphate (As2P), 10 mM HEPES, 10^−8 M Dexamethasone and 0.2 mM L-Glutamine. During the differentiation process, samples were collected at days 3, 14 and 28 in Trizol reagent for total RNA preparation and gene expression analysis (see below). […]
(§3) Following three days of pre-treatment of osteocyte-like cultures with PPS and a further 48 h treatment period, total RNA was isolated for the purposes of analysing gene expression using real-time RT-PCR. While the quality of the RNA isolated from all cultures appeared to be high, as adjudged by Nanodrop micro-spectrophotometry showing the ratio of absorbance at 260 nm/280 nm generally being between 1.9 and 2.0, there was a consistent inability to generate complementary DNA (cDNA) from any samples exposed to 5 or 50 μg/mL PPS, except in one or two samples. […]

[1] = volunteers injected subcutaneously with PPS; cited from earlier work
IL-6 mRNA = test: real-time RT-PCR for IL-6 mRNA in KOA osteocyte-like cultures; format: cell-based, human; conditions: PPS 1 μg/mL + rhTNFα 1 ng/mL, 48 h (FIG. 17)
Method: as §2, §3

With Sodium Pentosan Polysulfate [PPS] the “secreted levels of mature NGF protein (ELISA)” value (NGF) was “increased”, the “effect of rhTNF on proNGF secretion” value (proNGF; KOA and NOF cultures, rhTNFα 1 ng/mL 48 h after 3 days PPS pre-treatment, all PPS concentrations tested) was “strongly reversed” and the “basal proNGF secretion” value (proNGF; all donors' cells (KOA and NOF), all PPS concentrations tested (1, 5, 50 μg/mL)) was “strongly suppressed”. For the same substance, the “COX2 mRNA expression, PPS alone” value (COX2 mRNA; PPS 1 μg/mL (FIG. 18)) was “completely inhibited”, the “COX2 mRNA expression, PPS in combination with rhTNFα” value (COX2 mRNA; PPS 1 μg/mL + rhTNFα 1 ng/mL (FIG. 18)) was “completely inhibited” and the “plasma concentrations of PPS” value [1] was 1000 to 3000 ng/mL. For the same substance, the “effect of rhTNFα on IL-6 mRNA expression” value (IL-6 mRNA) was “inhibited”.
